Assay results as given in patent US4379165A, “Anti-convulsant” (priority 1981, dated 1983).
Entries after “also recorded” stand apart in the source; their conditions may differ. Like-named read-outs stand apart in the source and are kept apart here.

What was measured:
in vivo [1] = details: mouse
Procedure: (§1) The solution was prepared by dissolving the compound in 30% polyethylene glycol 400. The compound was injected either orally or intraperitoneally in a volume of 0.01 ml/g body weight in mice and 0.04 ml/10 g body weight in rats.
(§2) Untreated or normal animals can easily maintain their balance in this test.

[2] = system: maximal electroshock seizures; assay: maximal electroshock seizure (MES) pattern test, mice; details: for ED50: Mus musculus, read-out: ED50 MES
Procedure: as §1
(§3) The profile of anti-convulsant activity for each substance was established by five tests: one electrical and four chemical. The electrical test employed was the maximal electroshock seizure (MES) pattern test. […] These tests are conducted by administering the anti-convulsant compound or drug to the animals then giving the convulsive amount of electrical energy or chemical convulsant and measuring the ability of the test compound to prevent the production of convulsions.
(§4) This test measures the ability of the test drug to abolish the hind-limb tonic-extensor component of maximal seizures induced by 50 mA of current delivered to the animals for 0.2 seconds.

[3] = system: subcutaneous metrazol seizure threshold; assay: subcutaneous Metrazol Seizure Threshold Test (sc Met), mice; details: for ED50: Mus musculus, read-out: ED50 sc Met
Procedure: as §1
(§5) The profile of anti-convulsant activity for each substance was established by five tests: one electrical and four chemical. The electrical test employed was the maximal electroshock seizure (MES) pattern test. The four chemical tests included the subcutaneous Metrazol Seizure Threshold Test (sc Met), subcutaneous Bicuculline Seizure Threshold Test (sc Bic), subcutaneous Picrotoxin Seizure Threshold Test (sc Pic), and the subcutaneous Strychnine Seizure Pattern Test (sc Strych). These tests are conducted by administering the anti-convulsant compound or drug to the animals then giving the convulsive amount of electrical energy or chemical convulsant and measuring the ability of the test compound to prevent the production of convulsions.
(§6) (b) scMet=Subcutaneous metrazol seizure threshold test. The test measures the ability of the test drug to afford complete protection against a subcutaneously administered convulsant dose of metrazol.
(§7) (j) PI=Protective index, defined as the ratio of TD50 to ED50 (TD50/ED50).

[4] = Rotorod Toxicity Test, rats; format: in vivo; details: rat, in vivo, po
Procedure: as §1, §2

[5] = system: ability to maintain balance on a rotating rod; assay: Rotorod Toxicity Test, rats; format: in vivo; details: for animals toxic: intraperitoneal, footnote of Table 5
Procedure: as §1, §2

lethality, LD50 = format: in vivo; details: mouse, in vivo, ip, mice, intraperitoneal; for LD50 at 24 h: 24-hour period
Procedure: (§8) The anti-convulsant amide (4) was administered to mice and rats as a solution. The solution was prepared by dissolving the compound in 30% polyethylene glycol 400. The compound was injected either orally or intraperitoneally in a volume of 0.01 ml/g body weight in mice and 0.04 ml/10 g body weight in rats.

[6] = system: Salmonella indicator organisms; assay: in vitro microbial mutagenicity assays; details: 1.0 ug to 10,000.0 ug per plate
Procedure: The amide was examined for mutagenic activity in a series of in vitro microbial assays employing Salmonella indicator organisms. The compound was tested directly and in the presence of liver microsomal enzyme preparations from Aroclor-induced rats. The dose range employed for the evaluation was from 1.0 ug to 10,000.0 ug per plate. The results of the tests conducted on the amide in the absence of a metabolic activation system and in the presence of a rat liver activation system were negative.

convulsions = assay: anti-convulsant activity, overall statements from animal studies; format: in vivo; details: mice and rats
[7] = system: subcutaneous picrotoxin seizure threshold; details: mice
Procedure: as §1, §5
(§9) (d) scPic=Subcutaneous picrotoxin seizure threshold test.
(§10) (j) PI=Protective index, defined as the ratio of TD50 to ED50 (TD50/ED50). The PI is a measure of the safety of the drug. A high PI value indicates a greater margin of safety between the effective dose for the pharmacological effect and the toxic dose producing side-effects. A compound with a high PI would be a safer drug to use.

[8] = system: subcutaneous strychnine seizure pattern; details: mice
Procedure: as §1
(§11) The profile of anti-convulsant activity for each substance was established by five tests: one electrical and four chemical. […] The four chemical tests included the subcutaneous Metrazol Seizure Threshold Test (sc Met), subcutaneous Bicuculline Seizure Threshold Test (sc Bic), subcutaneous Picrotoxin Seizure Threshold Test (sc Pic), and the subcutaneous Strychnine Seizure Pattern Test (sc Strych). These tests are conducted by administering the anti-convulsant compound or drug to the animals then giving the convulsive amount of electrical energy or chemical convulsant and measuring the ability of the test compound to prevent the production of convulsions.
(§12) (e) ScStrych=Subcutaneous strychnine seizure pattern test. The test measures the ability of the test drug to abolish all toxic components of seizures induced by the subcutaneous injection of a convulsant dose of strychnine.

[9] = system: ability to maintain balance on a rotating rod
Procedure: as §1, §2

in vivo [10] = details: mouse; remark: listed apart in the source
Procedure: as §1, §3, §4

[11] = system: subcutaneous picrotoxin seizure threshold; assay: animal or person; details: Mus musculus, ip, read-out: ED50 Picrotoxin
Procedure: as §1, §5, §9, §10

[12] = hypnosis (loss of righting reflex), HD50; details: mouse, in vivo, ip
Procedure: as §1
(§13) (h) HD50=Hypnotic dose in 50% of the subjects tested.
(§14) (l) Slope of regression line--This represents the rate of change in response (effect) for a change in dose. The higher the numerical value of the slope, the greater the rate of change in response.

righting reflex = assay: hypnosis (loss of righting reflex), HD50; details: mice; intraperitoneal
Procedure: as §1, §13, §14

[13] = maximal electroshock seizure (MES) pattern test, rats; details: rat, in vivo, po, PI (TD50/ED50) MES, rats (Table 7; title of Table 5 prints Mice)
Procedure: as §1, §3, §4

[14] = system: maximal electroshock seizures; assay: as above; details: for ED50: Rattus norvegicus, po, read-out: ED50 MES
Procedure: as §1, §3, §4

[15] = system: subcutaneous bicuculline seizure threshold; assay: subcutaneous Bicuculline Seizure Threshold Test (sc Bic); details: for ED50: Mus musculus, ip, read-out: ED50 Bicuculline, mice
Procedure: as §1, §11
(c) scBic=Subcutaneous bicuculline seizure threshold test.
as §7

[16] = subcutaneous Metrazol Seizure Threshold Test (sc Met), mice; details: mouse, in vivo, PI (TD50/ED50) sc Met, mice
Procedure: as §1, §5, §6, §7

[17] = system: subcutaneous metrazol seizure threshold; assay: subcutaneous Metrazol Seizure Threshold Test (sc Met), rats; details: for animals protected vs sc Met test: intraperitoneal, footnote of Table 5; for ED50: Rattus norvegicus, po
Procedure: as §1, §5, §6, §7

in vivo [18] = details: mouse, ip
Procedure: as §1, §13, §14

[19] = system: subcutaneous strychnine seizure pattern; assay: animal or person; details: Mus musculus, ip, read-out: ED50 Strychnine
Procedure: as §1, §11, §12

lethality = assay: lethality, LD50; format: in vivo; details: mice; intraperitoneal; 24-hour period
Procedure: as §8

[20] = subcutaneous Metrazol Seizure Threshold Test (sc Met), rats; details: rat, in vivo, po
Procedure: as §1, §5, §6, §7

[21] = rats (Table 7; title of Table 5 prints Mice), oral
[22] = mice, oral, at / up to 300 (mg/kg)
[23] = rats (Table 7; title of Table 5 prints Mice), oral, at 300 (mg/kg)
[24] = mice, intraperitoneal, up to 100 (mg/kg)

Nc1ccc(C(=O)NC2CCCCC2)cc1 [compound 2]
TD50 (in vivo [1]; ip): 189 mg/kg
ED50 ([2]; ip): 67.2 mg/kg
ED50 ([3]; ip): 123 mg/kg

CC(NC(=O)c1ccc(N)cc1)c1ccccc1 (stereo not drawn) [4-amino-N-(alpha-methylbenzyl)-benzamide]
TD50 [4]: 170 mg/kg
animals toxic ([5]; 75 mg/kg): 2/8
animals toxic ([5]; 150 mg/kg): 6/8
selectivity ratio (lethality, LD50; read-out: Ratio LD50/HD50): 1.56
selectivity ratio (lethality, LD50; read-out: Ratio LD50/TD50): 4.21
LD50 at 24 h (lethality, LD50): 718 mg/kg
mutagenic activity ([6]; absence of a metabolic activation system): negative
mutagenic activity ([6]; rat liver activation system): negative
anti-convulsant activity in words (convulsions): effective against a wide range of convulsion types; also recorded: exhibits anti-convulsant activity in mice and rats
activity against picrotoxin seizures ([7]; in words): effective against picrotoxin seizures in toxic doses
PI (TD50/ED50) Picrotoxin ([7]; intraperitoneal): 0.89
activity against seizures induced by strychnine ([8]; in words): only partially effective
PI (TD50/ED50) Strychnine ([8]; intraperitoneal): < 0.85
Maximum protection, Strychnine ([8]; intraperitoneal, at 170 mg/kg): 37.5%
protection, Strychnine ([8]; intraperitoneal, at 200 (mg/kg)): 25%
Rotorod TD50 ([9]; mice, intraperitoneal): 170.78 mg/kg
selectivity ratio (in vivo [10]; ip): 9.48
selectivity ratio (in vivo [10]; po): 5.69
TD50 (in vivo [1]; ip): 171 mg/kg
TD50 (in vivo [1]; po): 271 mg/kg
ED50 [11]: 191 mg/kg
TD50 [12]: 462 mg/kg
HD50 (righting reflex) (righting reflex): 461.76 mg/kg
oral ED50/i.p. ED50 ([2]; MES test in mice): 2.65
ED50 ([2]; ip): 18 mg/kg
ED50 ([2]; po): 47.7 mg/kg
absorption after oral administration ([2]; mice, from oral ED50/i.p. ED50 in MES test): adequately absorbed
selectivity ratio [13]: 10.6
ED50 [14]: 16.1 mg/kg
PI (TD50/ED50) MES [14, 21]: 10.5
ED50 ([15]; intraperitoneal): 39.1 mg/kg
activity against seizures induced by bicuculline ([15]; mice, in words): effective against seizures induced by bicuculline
PI (TD50/ED50) Bicuculline ([15]; mice, intraperitoneal): 4.37
selectivity ratio ([16]; intraperitoneal): 4.09
selectivity ratio ([16]; oral): < 0.9
ED50 ([3]; ip): 41.7 mg/kg
Maximum protection, sc Met ([3]; mice, oral, at 100 (mg/kg)): 25%
protection, sc Met [3, 22]: no protection and No
animals protected vs sc Met test ([17]; 75 mg/kg): 4/8
animals protected vs sc Met test ([17]; 150 mg/kg): 8/8
Max. Prot., sc Met [17, 23]: 50%
animals with recurring clonic seizures, sc Met [17, 23]: 1 of 8

CCCN(CCC)C(=O)c1ccc(N)cc1 [compound 5]
TD50 (in vivo [1]; ip): 116 mg/kg
ED50 ([2]; ip): 61.7 mg/kg

NC(=O)N1c2ccccc2C=Cc2ccccc21 [Carbamazepine]
LD50 at 24 h (lethality, LD50): 629 mg/kg
TD50 (in vivo [18]): 172 mg/kg
ED50 [11]: 37.2 mg/kg
ED50 [19]: 78.8 mg/kg
ED50 ([2]; ip): 8.81 mg/kg
ED50 ([2]; po): 15.4 mg/kg
ED50 [14]: 8.5 mg/kg
fraction protected, Bicuculline ([15]; mice, intraperitoneal, 100 mg/kg): 1/2
Max. Prot., Bicuculline ([15]; mice, intraperitoneal, at 50-130 (mg/kg)): 62.5%
ED50 ([3]; po): 48.1 mg/kg
protection, sc Met [3, 24]: No protection; also recorded: No protect-
sc Met result in words [17, 21]: Variable

CCCCCNC(=O)c1ccc(N)cc1 [compound 3]
TD50 (in vivo [1]; ip): 68.5 mg/kg
ED50 ([2]; ip): 43 mg/kg
ED50 ([3]; ip): 57.3 mg/kg

O=C1NC(=O)C(c2ccccc2)(c2ccccc2)N1 [Phenytoin]
TD50 [4]: > 3000 mg/kg
LD50 (lethality) (lethality): 229.61 mg/kg
protection, Picrotoxin ([7]; intraperitoneal, up to 100 (mg/kg)): No pro-
Max. Prot., Strychnine ([8]; intraperitoneal, at 55-100 (mg/kg)): 50%
TD50 (in vivo [18]): 178 mg/kg
ED50 [14]: 29.8 mg/kg
protection, Bicuculline [15, 24]: No pro-
protection, sc Met [3, 24]: No pro-
protection, sc Met ([3]; mice, intraperitoneal, up to 300 (mg/kg)): No protect-; also recorded: No protection
protection, sc Met [3, 22]: No protection; also recorded: No pro-
protection, sc Met ([17]; rats (Table 7; title of Table 5 prints Mice), oral, up to 800 (mg/kg)): No pro-

CCC1(c2ccccc2)NC(=O)N(C)C1=O (stereo not shown) [Mephenytoin]
TD50 [4]: 85.7 mg/kg
selectivity ratio (lethality, LD50; read-out: Ratio LD50/HD50): 1.4
selectivity ratio (lethality, LD50; read-out: Ratio LD50/TD50): 3.69
LD50 at 24 h (lethality, LD50): 568 mg/kg
PI (TD50/ED50) Picrotoxin ([7]; intraperitoneal): 1.52
Max. Prot., Strychnine ([8]; intraperitoneal, at 70-150 (mg/kg)): 50%
selectivity ratio (in vivo [10]; ip, PI (TD50/ED50) MES, mice, intraperitoneal): 2.54
selectivity ratio (in vivo [10]; po, PI (TD50/ED50) MES, mice): 5.37
TD50 (in vivo [1]; po): 354 mg/kg
TD50 (in vivo [18]): 406 mg/kg
ED50 [11]: 101 mg/kg
ED50 ([2]; ip): 60.5 mg/kg
ED50 ([2]; po): 65.9 mg/kg
selectivity ratio [13]: 4.74
ED50 [14]: 18.1 mg/kg
PI (TD50/ED50) Bicuculline ([15]; mice, intraperitoneal): 1.24
selectivity ratio ([16]; intraperitoneal): 5.05
selectivity ratio ([16]; oral): 9.75
ED50 ([3]; ip): 30.4 mg/kg
ED50 ([3]; po): 36.3 mg/kg
PI (TD50/ED50) sc Met ([3]; mice, oral): 9.73
selectivity ratio [20]: 3.96
ED50 ([17]; read-out: ED50 sc Met): 21.6 mg/kg

CCC1(c2ccccc2)C(=O)NC(=O)NC1=O [Phenobarbital]
Rotorod TD50 [5, 21]: 61.09 mg/kg
LD50 (lethality) (lethality): 264.70 mg/kg
ED50 [11]: 27.5 mg/kg
ED50 [19]: 95.3 mg/kg
TD50 [12]: 135 mg/kg
HD50 (righting reflex) (righting reflex): 135.45 mg/kg
ED50 ([2]; ip): 21.8 mg/kg
ED50 ([2]; po): 20.1 mg/kg
ED50 [14]: 9.14 mg/kg
ED50 ([15]; intraperitoneal): 37.7 mg/kg
ED50 ([3]; ip): 13.2 mg/kg
ED50 ([3]; po): 12.6 mg/kg
ED50 ([17]; read-out: ED50 sc Met, rats (Table 7; title of Table 5 prints Mice), oral): 11.6 mg/kg
ED50 sc Met [17, 21]: 11.58 mg/kg

Nc1ccc(C(=O)NCc2ccccc2)cc1 [No. 4, 4-amino-N-benzyl-benzamide]
TD50 (in vivo [1]; ip): 83.4 mg/kg
ED50 ([2]; ip): 23.3 mg/kg

Nc1ccc(C(=O)Nc2ccccc2)cc1 [compound 1]
TD50 ([9]; mouse, in vivo, ip): 111.30 mg/kg
ED50 ([2]; ip): 50.5 mg/kg
ED50 ([3]; ip): 59.1 mg/kg
